We go through two molecules from ChEMBL document CHEMBL5726250, “AMPK-activating heterocyclic compounds and methods for using the same” (2017).

The assay addresses 5'-AMP-activated protein kinase catalytic subunit alpha-2 (Homo sapiens, UniProt P54646). Nature of the assay: Enzyme-Linked Immunosorbent Assay: Compounds were assayed for their ability to activate AMPK using an enzyme-linked immunosorbent assay. Reagents and procedures for measuring AMPK activation are well known and kits for AMPK activation assays are commercially available.

Chain of 5'-AMP-activated protein kinase catalytic subunit alpha-2 (P54646 whole entry): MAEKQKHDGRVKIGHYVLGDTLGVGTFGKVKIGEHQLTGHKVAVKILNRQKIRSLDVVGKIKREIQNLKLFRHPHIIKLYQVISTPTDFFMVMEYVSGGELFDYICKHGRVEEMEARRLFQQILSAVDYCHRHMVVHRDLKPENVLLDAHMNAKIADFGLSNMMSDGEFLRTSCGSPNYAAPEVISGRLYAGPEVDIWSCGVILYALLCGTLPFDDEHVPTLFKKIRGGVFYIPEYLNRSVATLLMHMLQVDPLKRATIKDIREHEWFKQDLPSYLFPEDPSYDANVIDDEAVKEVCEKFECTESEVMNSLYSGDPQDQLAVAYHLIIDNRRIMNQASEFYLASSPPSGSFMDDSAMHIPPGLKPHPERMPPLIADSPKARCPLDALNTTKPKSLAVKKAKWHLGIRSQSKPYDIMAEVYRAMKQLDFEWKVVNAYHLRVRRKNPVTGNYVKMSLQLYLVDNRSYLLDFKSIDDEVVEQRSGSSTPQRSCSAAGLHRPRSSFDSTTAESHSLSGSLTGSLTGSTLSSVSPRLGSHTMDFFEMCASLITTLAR

Consider `O=C(Nc1ccc(-c2ccc([N+](=O)[O-])cc2)cc1)c1ccc(C(=O)N2CCN(Cc3ccc(F)cc3)CC2)cn1`, for which the EC50 (in general, the concentration at which the effect is half-maximal) is greater than 10 µM. Next, `O=C(Nc1ccccc1-c1ccccc1)c1ccc(C(=O)N2CCN(Cc3ccc(F)cc3)CC2)cn1`: greater than 10 µM.
